Laboratory results from patent US20230134843A1, “TREATMENT OF STEM CELL DEFICIENCY” (OSPEDALE SAN RAFFAELE S.R.L., priority 2020, published 2023).
“Also recorded” adds a separate entry of the source.

Tests used:
conjunctival cells = assay: Conjunctival and corneal epithelial cell identification (CK8, CK19, CK12 immunofluorescence), stem cell deficiency model; format: in vivo, mice; details: Fosaprepitant 1 mg/mL (FOSA 1)
From the text: Eight-week-old male mice C57BL6/N (Charles River, Calco, Italy) (WT mice, n=18) and Tac1-deficient B6.Cg-Tac1tm1Bbm/J (Jackson Laboratories, Bar Harbor, Me., USA) (TAC1-KO mice, n=18) were used in all experiments. TAC1-KO mice are homozygous null for the Tac1 gene. […] The corneal thickness and transparency as well as the corneal nerve length are similar to C57BL/6 mice [Barbariga M, Rabiolo A, Fonteyne P, Bignami F, Rama P, Ferrari G. The effect of aging on nerve morphology and substance P expression in mouse and human corneas. Investig Ophthalmol Vis Sci 2018; 59:5329-35. https://doi.org/10.1167/iovs.18-24707.]. Each animal was anesthetized with an intraperitoneal injection of tribromoethanol (250 mg/kg) and a topical anesthetic was applied to their ocular surface prior to the surgical procedure. Total disepithelization was performed based on the model previously described [Amirjamshidi H, Milani B Y, Sagha H M, Movahedan A, Shafiq M A, Lavker R M, et al. Limbal fibroblast conditioned media: A non-invasive treatment for limbal stem cell deficiency. Mol Vis 2011; 17:658], using a blunt spatula to scrap the entire corneal epithelium, including the limbus. Then, fluorescein staining was used to confirm complete removal of the corneal epithelium under the blue light of a slit-lamp microscope. After wounding, eyes were treated with ophthalmic moxifloxacin 1 time/day for 1 week to […]. Fourteen days after disepithelization mice were euthanized using carbon dioxide inhalation and subsequent cervical dislocation. Corneas were collected for immunostaining and western blot analysis. […]
The presence of conjunctival epithelial cells was evaluated by immunofluorescence. […] A negative control using only the secondary antibody was used to establish a fluorescence threshold. Then, the fluorescent intensity was quantified in terms of the percentage of positive area (% area) in the epithelium.

goblet cells = assay: Goblet cell identification by PAS staining in the cornea, stem cell deficiency model; format: in vivo, mice; details: Fosaprepitant 1 mg/mL (FOSA 1); p<0.05
From the text: Eight-week-old male mice C57BL6/N (Charles River, Calco, Italy) (WT mice, n=18) and Tac1-deficient B6.Cg-Tac1tm1Bbm/J (Jackson Laboratories, Bar Harbor, Me., USA) (TAC1-KO mice, n=18) were used in all experiments. TAC1-KO mice are homozygous null for the Tac1 gene. […] The corneal thickness and transparency as well as the corneal nerve length are similar to C57BL/6 mice [Barbariga M, Rabiolo A, Fonteyne P, Bignami F, Rama P, Ferrari G. The effect of aging on nerve morphology and substance P expression in mouse and human corneas. Investig Ophthalmol Vis Sci 2018; 59:5329-35. https://doi.org/10.1167/iovs.18-24707.]. Each animal was anesthetized with an intraperitoneal injection of tribromoethanol (250 mg/kg) and a topical anesthetic was applied to their ocular surface prior to the surgical procedure. […]
To identify the presence of goblet cells, periodic acid Schiff (PAS) staining was performed following the same experimental protocol previously described [Ferrari G, Bignami F, Giacomini C, Franchini S, Rama P. Safety and efficacy of topical infliximab in a mouse model of ocular surface scarring. […] The number of PAS+ cells was quantified using Image J software (National Institutes of Health, Bethesda, Md., USA), and the results were expressed as PAS+ cells per section.

C[C@@H](O[C@H]1OCCN(Cc2nc(=O)n(P(=O)(O)O)[nH]2)[C@H]1c1ccc(F)cc1)c1cc(C(F)(F)F)cc(C(F)(F)F)c1 [Fosaprepitant, [3-{[(2R,3S)-2-[(1R)-1-[3,5-bis(trifluoromethyl)phenyl]ethoxy]-3-(4-fluorophenyl)morpholin-4-yl]methyl}-5-oxo-2H-1,2,4-triazol-1-yl]phosphonic acid]
CK12 expression in the corneal epithelium compared to WT (conjunctival cells; p<0.001): increase
CK8 conjunctival cells infiltrating the cornea compared to WT (conjunctival cells; p<0.01): Reduced number; also recorded: reduction
CK19 conjunctival cells compared to WT (conjunctival cells; p<0.05): significant decrease; also recorded: reduction
PAS+ cells (goblet cells) in the cornea compared to WT (goblet cells): Reduced number; also recorded: decrease
